Reference: patent publication US9050345B2, “Pyrrolotriazines as potassium ion channel inhibitors” (BRISTOL-MYERS SQUIBB COMPANY, priority 2013, dated 2015)

Biological target: T1, human KV 1.5 (IKur) (Homo sapiens, UniProt P22460)
T1 construct: expressed in transfected cells
Assay: block of IKur current in patch clamped L-929 cells expressing human Kv1.5
Assay type: cell-based
Conditions: patch clamped mammalian L-929 cells stably expressing human Kv1.5; for inhibition at 0.3 µM: L929, 0.3 μM, read-out: KV1_5% Inh L929 @0.3 μM

T1 sequence (P22460 whole entry): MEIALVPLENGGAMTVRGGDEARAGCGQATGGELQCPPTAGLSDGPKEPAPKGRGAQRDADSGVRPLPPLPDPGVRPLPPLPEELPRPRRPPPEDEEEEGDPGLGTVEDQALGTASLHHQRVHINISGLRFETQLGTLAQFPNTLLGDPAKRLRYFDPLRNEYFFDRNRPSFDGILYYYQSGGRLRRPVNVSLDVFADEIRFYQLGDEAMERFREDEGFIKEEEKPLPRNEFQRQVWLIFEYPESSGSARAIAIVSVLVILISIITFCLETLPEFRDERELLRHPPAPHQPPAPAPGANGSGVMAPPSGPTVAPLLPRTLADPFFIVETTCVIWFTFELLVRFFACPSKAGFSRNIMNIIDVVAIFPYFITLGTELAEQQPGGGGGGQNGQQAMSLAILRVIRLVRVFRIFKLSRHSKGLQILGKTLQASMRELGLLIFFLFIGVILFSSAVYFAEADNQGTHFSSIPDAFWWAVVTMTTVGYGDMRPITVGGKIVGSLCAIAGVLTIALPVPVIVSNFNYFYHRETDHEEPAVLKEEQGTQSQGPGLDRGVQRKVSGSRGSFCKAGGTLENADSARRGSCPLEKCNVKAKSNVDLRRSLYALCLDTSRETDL

Row | inhibition at 0.3 µM [%] | KV1_5% Inh L929 @0.3 μM [%] | SMILES
1 | 95.7 |  | NS(=O)(=O)c1cncc(-c2nc(NCc3ccccn3)c3c(-c4cccc(F)c4)ccn3n2)c1 [Example 104, 5-(5-(3-fluorophenyl)-4-(pyridin-2-ylmethylamino)pyrrolo[1,2-f][1,2,4]triazin-2-yl)pyridine-3-sulfonamide]
2 | 97.6 |  | Nc1ncc(-c2nc(NCc3ccccn3)c3c(-c4ccccc4)ccn3n2)cc1S(N)(=O)=O [Example 130, 2-amino-5-(5-phenyl-4-((pyridin-2-ylmethyl)amino)pyrrolo [2,1-f][1,2,4]triazin-2-yl)pyridine-3-sulfonamide]
3 | 94.5 |  | CC(=O)Nc1ccc(-c2nc(NCc3ccccn3)c3c(-c4ccccc4)ccn3n2)cc1 [Example 26, N-(4-(5-Phenyl-4-(pyridin-2-ylmethylamino)pyrrolo[1,2-f][1,2,4]triazin-2-yl)phenyl)acetamide]
4 | 97.8 |  | NS(=O)(=O)c1ccc(-c2nc(NCc3ccccn3)c3c(-c4ccccc4)ccn3n2)cn1 [Example 183, 5-(5-phenyl-4-((pyridin-2-ylmethyl)amino)pyrrolo[2,1-f][1,2,4]triazin-2-yl)pyridine-2-sulfonamide]
5 | 62.2 |  | NC(=O)c1ccccc1CNc1nc(-c2cncc(S(N)(=O)=O)c2)nn2ccc(-c3ccccc3)c12 [Example 169, 2-(((5-phenyl-2-(5-sulfamoylpyridin-3-yl)pyrrolo[2,1-f][1,2,4]triazin-4-yl)amino)methyl) benzamide]
6 | 84.9 |  | NS(=O)(=O)c1cc(-c2nc(NCc3ccccn3)c3c(-c4ccccc4)ccn3n2)cnc1O [Example 49, 2-hydroxy-5-(5-phenyl-4-(pyridin-2-ylmethylamino)pyrrolo[1,2-f][1,2,4]triazin-2-yl)pyridine-3-sulfonamide]
7 | 97.6 |  | CC(C)S(=O)(=O)Nc1cncc(-c2nc(NCc3ccccn3)c3c(-c4ccccc4)ccn3n2)c1 [Example 64, N-(5-(5-phenyl-4-(pyridin-2-ylmethylamino)pyrrolo[1,2-f][1,2,4]triazin-2-yl)pyridin-3-yl)propane-2-sulfonamide]
8 | 99.3 |  | NS(=O)(=O)c1cncc(-c2nc(NCc3ccccn3)c3c(-c4ccccc4)ccn3n2)n1 [Example 127, 6-(5-phenyl-4-(pyridin-2-ylmethylamino)pyrrolo[1,2-f][1,2,4]triazin-2-yl)pyrazine-2-sulfonamide]
9 | 98.6 |  | NC(=O)C(=O)Nc1cncc(-c2nc(NCc3ccccn3)c3c(-c4ccccc4)ccn3n2)c1 [Example 31, N1-(5-(5-Phenyl-4-(pyridin-2-ylmethylamino)pyrrolo[1,2-f][1,2,4]triazin-2-yl)pyridin-3-yl)oxalamide]
10 | 94.2 |  | Oc1ccc(-c2nc(NCc3ccccn3)c3c(-c4ccccc4)ccn3n2)cn1 [Example 151, 5-(5-phenyl-4-((pyridin-2-ylmethyl)amino)pyrrolo [2,1-f][1,2,4]triazin-2-yl)pyridin-2-ol]
11 | 87.8 | 95.01 | NS(=O)(=O)c1cncc(-c2nc(NC(CO)c3ccccn3)c3c(-c4ccccc4)ccn3n2)c1 (stereo not shown) [Example 33, 5-(4-((2-Hydroxy-1-(pyridin-2-yl)ethyl)amino)-5-phenylpyrrolo[2,1-f][1,2,4]triazin-2-yl)pyridine-3-sulfonamide]
12 | 98.2 |  | NC(=O)c1cccc(-c2nc(NCc3ccccn3)c3c(-c4ccccc4)ccn3n2)c1 [Example 109, 3-(5-phenyl-4-(pyridin-2-ylmethylamino)pyrrolo[1,2-f][1,2,4]triazin-2-yl)benzamide]

More lines, now with the values behind:

Row | SMILES | inhibition at 0.3 µM [%] | KV1_5% Inh L929 @0.3 μM [%]
13 | CC(O)c1cncc(-c2nc(NCc3ccccc3)c3c(-c4ccccc4)ccn3n2)c1 (stereo not shown) [Example 21, 1-(5-(4-(Benzylamino)-5-phenylpyrrolo[1,2-f][1,2,4]triazin-2-yl)pyridin-3-yl)ethanol] | 93.2 | 96.63
14 | NC(=O)c1cncc(-c2nc(NCc3ccccc3)c3c(-c4ccccc4)ccn3n2)c1 [Example 13, 5-(4-(Benzylamino)-5-phenylpyrrolo[1,2-f][1,2,4]triazin-2-yl)nicotinamide] | 95.9 | 
15 | COc1ncc(-c2nc(N3Cc4cccnc4C3)c3c(-c4ccccc4)ccn3n2)cc1S(N)(=O)=O [Example 40, 2-Methoxy-5-(5-phenyl-4-(5H-pyrrolo[3,4-b]pyridin-6(7H)-yl)pyrrolo[1,2-f][1,2,4]triazin-2-yl)pyridine-3-sulfonamide] | 40.4 | 
16 | COc1ccc(-c2nc(NCc3ccccn3)c3c(-c4ccc(OC)nc4)ccn3n2)cn1 [Example 7, 2,5-Bis(6-methoxypyridin-3-yl)-N-(pyridin-2-ylmethyl)pyrrolo[1,2-f][1,2,4]triazin-4-amine] | 97.8 | 
17 | Cc1cc(CNc2nc(-c3cncc(S(N)(=O)=O)c3)nn3ccc(-c4ccccc4)c23)no1 [Example 176, 5-(4-(((5-methylisoxazol-3-yl)methyl)amino)-5-phenylpyrrolo [2,1-f][1,2,4]triazin-2-yl)pyridine-3-sulfonamide] | 96 | 
18 | O=C(Nc1ccc(-n2cncn2)cc1)c1nc(NCc2ccccc2)c2c(-c3ccccc3)ccn2n1 [Example 123, N-(4-(1H-1,2,4-triazol-1-yl)phenyl)-4-(benzylamino)-5-phenylpyrrolo [1,2-f][1,2,4] triazine-2-carboxamide] | 63.5 | 
19 | COC(=O)NC1(c2nc(NCc3ccccn3)c3c(-c4ccccc4)ccn3n2)CC1 [Example 35, Methyl 1-(5-phenyl-4-(pyridin-2-ylmethylamino)pyrrolo[1,2-f][1,2,4]triazin-2-yl)cyclopropylcarbamate] | 92.8 | 
20 | OCC(CO)c1cncc(-c2nc(NCc3ccccc3)c3c(-c4ccccc4)ccn3n2)c1 [Example 24, 2-(5-(4-(Benzylamino)-5-phenylpyrrolo[1,2-f][1,2,4]triazin-2-yl)pyridin-3-yl)propane-1,3-diol] | 63.5 | 
21 | N#Cc1cncc(-c2nc(NC(c3ccccc3)C(F)(F)F)c3c(-c4ccccc4)ccn3n2)c1 (stereo not shown) [Example 88, 5-(5-phenyl-4-(-2-,2,2-trifluoro-1-phenylethylamino)pyrrolo [1,2-f][1,2,4]triazin-2-yl)nicotinonitrile] | 27.2 | 
22 | O=C(O)CCNC(=O)c1cncc(-c2nc(NCc3ccccc3)c3c(-c4ccccc4)ccn3n2)c1 [Example 98, 3-(5-(4-(benzylamino)-5-phenylpyrrolo [1,2-f][1,2,4]triazin-2-yl)nicotinamido) propanoic acid] | 55.3 | 
23 | NS(=O)(=O)c1cccc(-c2nc(NCc3ccccc3)c3c(-c4ccccc4)ccn3n2)c1 [Example 149, 3-(4-(benzylamino)-5-phenylpyrrolo[1,2-f] [1,2,4]triazin-2-yl)benzenesulfonamide] | 95.8 | 
24 | NS(=O)(=O)c1cncc(-c2nc(NCCN3CCOCC3)c3c(-c4ccccc4)ccn3n2)c1 [Example 155, 5-(4-((2-morpholinoethyl)amino)-5-phenylpyrrolo [2,1-f][1,2,4]triazin-2-yl)pyridine-3-sulfonamide] | 30.2 | 
25 | Nc1cncc(-c2nc(NCc3ncccn3)c3c(-c4ccccc4)ccn3n2)c1 [Example 162, 2-(5-aminopyridin-3-yl)-5-phenyl-N-(pyrimidin-2-ylmethyl)pyrrolo[2,1-f] [1,2,4]triazin-4-amine] | 95.6 | 
26 | NS(=O)(=O)c1cccc(NC(=O)c2nc(NCc3ccccc3)c3c(-c4ccccc4)ccn3n2)c1 [Example 116, 4-(benzylamino)-5-phenyl-N-(3-sulfamoylphenyl) pyrrolo[1,2-f][1,2,4] triazine-2-carboxamide] | 89.4 | 
